The values below come from patent US8940727B2, “Benzazepine compound” (Otsuka Pharmaceutical Co., Ltd., priority 2009, dated 2015).

The data set is described as follows: Metabolic stability assay in human liver microsomes. It is filed as in vitro ADME. The settings on record: for microsomal CLint at 1 μM: human liver microsomes 0.2 mg/mL, test compound 1 μM, NADPH/NADH, n = 4, read-out: hepatic intrinsic clearance (Clint). The procedure:
The following reaction system was prepared with reference to the method disclosed by Obach, and that disclosed by Jones et al. (References 1 and 2), and the metabolic stability thereof was evaluated. Note that the human liver microsomes used were purchased from BD Gentest. The test compound was dissolved in DMSO to have a concentration of 10 mM and diluted with acetonitrile in such a manner that its concentration became 100 μM.
A reaction system without a coenzyme was preincubated at 37° C. for 5 minutes, and a coenzyme was then added to start the reaction. After the addition of the coenzyme, the incubation was performed at selected time intervals, i.e., 0, 5, 10, 20, 30 and 60 minutes to extract a portion of the reaction mixture. The extracted reaction mixture was added to an acetonitrile solution containing an internal standard substance and the reaction was then terminated.
After the reaction was terminated, the resulting mixture was centrifuged, the supernatant was poured into a liquid chromatograph tandem mass spectrometer (LC-MS/MS) to determine the level of unchanged substance remaining in the reaction system. Ionization was performed by electro-spray ionization (ESI) in a positive ion detection mode. Here, selected reaction monitoring (MRM) using preset precursor ions and product ions was employed.
The remaining ratio of the test compound was calculated by the following equation. Remaining ratio=(peak area of the test compound at the reaction time of t minutes/peak area of the internal standard substance)÷(peak area of the test compound at the reaction time of 0 minutes/peak area of the internal standard substance)
A nonlinear least-squares analysis was performed in terms of the remaining ratio and incubation time to obtain the elimination rate constant (0.693/t1/2), and, further, the hepatic intrinsic clearance (Clint) was obtained using the following Formula (1). Clint (μL/min/mg)=(0.693/t1/2)÷0.2 (mg/mL)×1000 (1) […]
A general note: Liver microsomes are a subcellular fraction often used to study metabolism.

With `[2H]C1([2H])CC([2H])([2H])C([2H])(O)c2cc(Cl)ccc2N1C(=O)c1ccc(NC(=O)c2ccccc2C)cc1C` (stereo not drawn) [Example 4, N-(4-(7-chloro-5-hydroxy-2,2,4,4,5-pentadeutero-1H-benzo[b]azepine-1-carbonyl)-3-methylphenyl)-2-methylbenzamide], the microsomal CLint at 1 μM is 166 ± 5.3 µL/min/mg. The “metabolic stability compared to tolvaptan” value (human liver microsomes, two-tailed Dunnett's test, p<0.001) is on record as “significantly improved metabolic stability compared to tolvaptan”. In the case of `Cc1ccccc1C(=O)Nc1ccc(C(=O)N2CCCC(O)c3cc(Cl)ccc32)c(C)c1` (stereo not drawn) [Tolvaptan, tolvaptan, reference compound], the microsomal CLint at 1 μM was 214 ± 4.3 µL/min/mg.
